Experiments:
Type in all cases: functional
[1] = test system: Thanatephorus cucumeris; test: Fungicidal activity against Thanatephorus cucumeris assessed as rice sheath blight disease control at 31.3 ppm foliar application for 24 hr before inoculation at 26 +- 2 measured after 5 days by preventive manner
[2] = test system: Thanatephorus cucumeris; test: Fungicidal activity against Thanatephorus cucumeris assessed as rice sheath blight disease control at 7.8 ppm foliar application for 24 hr before inoculation at 26 +- 2 measured after 5 days by preventive manner
[3] = test system: Thanatephorus cucumeris; test: Fungicidal activity against Thanatephorus cucumeris assessed as rice sheath blight disease control at 2 ppm foliar application for 24 hr before inoculation at 26 +- 2 measured after 5 days by preventive manner
[4] = test system: Podosphaera fuliginea; test: Fungicidal activity against Podosphaera fuliginea assessed as cucumber powdery mildew control under greenhouse at 7.8 ppm foliar application 24 hr after inoculation on upper surface of leaf at 23 +/- 2 degC by curative manner
[5] = test system: Podosphaera fuliginea; test: Fungicidal activity against Podosphaera fuliginea assessed as cucumber powdery mildew control under greenhouse at 2 ppm foliar application 24 hr after inoculation on upper surface of leaf at 23 +/- 2 degC by curative manner
[6] = test system: Pyricularia oryzae; test: Fungicidal activity against Magnaporthe oryzae assessed as rice blast disease control at 10 ppm submerged application measured after 7 days
[7] = test system: Pyricularia oryzae; test: Fungicidal activity against Magnaporthe oryzae assessed as rice blast disease control at 2.5 ppm submerged application measured after 7 days
[8] = test system: Pyricularia oryzae; test: Fungicidal activity against Magnaporthe oryzae assessed as rice blast disease control at 0.63 ppm submerged application measured after 7 days
[9] = test system: Pyricularia oryzae; test: Fungicidal activity against Magnaporthe oryzae assessed as rice blast disease control at 0.16 ppm submerged application measured after 7 days
[10] = test system: Pseudoperonospora cubensis; test: Fungicidal activity against Pseudoperonospora cubensis assessed as cucumber downy mildew disease control at 125 ppm foliar application 24 hr before inoculation on upper surface of leaf by preventive manner
[11] = test system: Pseudoperonospora cubensis; test: Fungicidal activity against Pseudoperonospora cubensis assessed as cucumber downy mildew disease control at 31.3 ppm foliar application 24 hr before inoculation on upper surface of leaf by preventive manner
[12] = test system: Pseudoperonospora cubensis; test: Fungicidal activity against Pseudoperonospora cubensis assessed as cucumber downy mildew disease control at 7.8 ppm foliar application 24 hr before inoculation on upper surface of leaf by preventive manner
[13] = test system: Pseudoperonospora cubensis; test: Fungicidal activity against Pseudoperonospora cubensis assessed as cucumber downy mildew disease control at 2 ppm foliar application 24 hr before inoculation on upper surface of leaf by preventive manner
[14] = test system: Podosphaera fuliginea; test: Fungicidal activity against Podosphaera fuliginea assessed as cucumber powdery mildew control under greenhouse at 125 ppm foliar application 24 hr before inoculation on upper surface of leaf at 23 +/- 2 degC by preventive manner
[15] = test system: Podosphaera fuliginea; test: Fungicidal activity against Podosphaera fuliginea assessed as cucumber powdery mildew control under greenhouse at 31.3 ppm foliar application 24 hr before inoculation on upper surface of leaf at 23 +/- 2 degC by preventive manner
[16] = test system: Podosphaera fuliginea; test: Fungicidal activity against Podosphaera fuliginea assessed as cucumber powdery mildew control under greenhouse at 7.8 ppm foliar application 24 hr before inoculation on upper surface of leaf at 23 +/- 2 degC by preventive manner
[17] = test system: Podosphaera fuliginea; test: Fungicidal activity against Podosphaera fuliginea assessed as cucumber powdery mildew control under greenhouse at 2 ppm foliar application 24 hr before inoculation on upper surface of leaf at 23 +/- 2 degC by preventive manner
[18] = test system: Thanatephorus cucumeris; test: Fungicidal activity against Thanatephorus cucumeris assessed as rice sheath blight disease control at 125 ppm foliar application for 24 hr before inoculation at 26 +- 2 measured after 5 days by preventive manner
[19] = test system: Botrytis cinerea; test: Fungicidal activity against Botryotinia fuckeliana assessed as cucumber gray mold disease control at 31.3 ppm foliar application 24 hr after inoculation at 22 +/- 2 degC measured after 3 days by curative manner
[20] = test system: Botrytis cinerea; test: Fungicidal activity against Botryotinia fuckeliana assessed as cucumber gray mold disease control at 7.8 ppm foliar application 24 hr after inoculation at 22 +/- 2 degC measured after 3 days by curative manner
[21] = test system: Botrytis cinerea; test: Fungicidal activity against Botryotinia fuckeliana assessed as cucumber gray mold disease control at 2 ppm foliar application 24 hr after inoculation at 22 +/- 2 degC measured after 3 days by curative manner
[22] = test system: Podosphaera fuliginea; test: Fungicidal activity against Podosphaera fuliginea assessed as cucumber powdery mildew control under greenhouse at 125 ppm foliar application 24 hr after inoculation on upper surface of leaf at 23 +/- 2 degC by curative manner
[23] = test system: Podosphaera fuliginea; test: Fungicidal activity against Podosphaera fuliginea assessed as cucumber powdery mildew control under greenhouse at 31.3 ppm foliar application 24 hr after inoculation on upper surface of leaf at 23 +/- 2 degC by curative manner
[24] = test system: Pseudoperonospora cubensis; test: Fungicidal activity against Pseudoperonospora cubensis assessed as cucumber downy mildew disease control at 125 ppm foliar application 24 hr after inoculation on upper surface of leaf by curative manner
[25] = test system: Pseudoperonospora cubensis; test: Fungicidal activity against Pseudoperonospora cubensis assessed as cucumber downy mildew disease control at 31.3 ppm foliar application 24 hr after inoculation on upper surface of leaf by curative manner
[26] = test system: Pseudoperonospora cubensis; test: Fungicidal activity against Pseudoperonospora cubensis assessed as cucumber downy mildew disease control at 7.8 ppm foliar application 24 hr after inoculation on upper surface of leaf by curative manner
[27] = test system: Pseudoperonospora cubensis; test: Fungicidal activity against Pseudoperonospora cubensis assessed as cucumber downy mildew disease control at 2 ppm foliar application 24 hr after inoculation on upper surface of leaf by curative manner
[28] = test system: Botrytis cinerea; test: Fungicidal activity against Botryotinia fuckeliana assessed as cucumber gray mold disease control at 125 ppm foliar application 24 hr after inoculation at 22 +/- 2 degC measured after 3 days by curative manner

Compound | Activity [1] [%] | Activity [2] [%] | Activity [3] [%] | Activity [4] [%] | Activity [5] [%] | Activity [6] [%] | Activity [7] [%] | Activity [8] [%] | Activity [9] [%] | Activity [10] [%] | Activity [11] [%] | Activity [12] [%] | Activity [13] [%] | Activity [14] [%] | Activity [15] [%] | Activity [16] [%] | Activity [17] [%] | Activity [18] [%] | Activity [19] [%] | Activity [20] [%] | other results
CNC(=O)/C(=N/OC)c1ccccc1Oc1cccc(Oc2ccccc2)c1 | 70 | 70 | 70 | 50 | 50 | 50 | 50 | 50 | 50 | 70 | 70 | 70 | 70 | 70 | 70 | 70 | 70 | 70 | 50 | 50 | Activity [21]: 50%; Activity [22]: 50%; Activity [23]: 50%; Activity [24]: 50%; Activity [25]: 50%; Activity [26]: 50%; Activity [27]: 50%; Activity [28]: 50%
C#CCOc1cccc(Oc2ccccc2/C(=N\OC)C(=O)NC)c1 | 70 | 70 | 70 | <50 | <50 | 50 | 50 | 50 | 50 | 70 | 70 | 70 | 70 | 70 | 70 | 70 | 70 | 70 | 50 | 50 | Activity [21]: 50%; Activity [22]: <50%; Activity [23]: <50%; Activity [24]: <50%; Activity [25]: <50%; Activity [26]: <50%; Activity [27]: <50%; Activity [28]: 50%
CNC(=O)/C(=N/OC)c1ccccc1Oc1ccc(Cl)c(C)c1 | 70 | 70 | 70 | 50 | 50 | 50 | 50 | 50 | 50 | 70 | 70 | 70 | 70 | 70 | 70 | 70 | 70 | 70 | 50 | 50 | Activity [21]: 50%; Activity [22]: 50%; Activity [23]: 50%; Activity [24]: 50%; Activity [25]: 50%; Activity [26]: 50%; Activity [27]: 50%; Activity [28]: 50%
CNC(=O)/C(=N/OC)c1ccccc1Oc1ccc(Cl)c(Cl)c1 | 70 | 70 | 70 | 50 | 50 | 50 | 50 | 50 | 50 | 70 | 70 | 70 | 70 | 70 | 70 | 70 | 70 | 70 | 50 | 50 | Activity [21]: 50%; Activity [22]: 50%; Activity [23]: 50%; Activity [24]: 50%; Activity [25]: 50%; Activity [26]: 50%; Activity [27]: 50%; Activity [28]: 50%
C=CCOc1cccc(Oc2ccccc2/C(=N\OC)C(=O)NC)c1 | 70 | 70 | 70 | 50 | 50 | 50 | 50 | 50 | 50 | 70 | 70 | 70 | 70 | 70 | 70 | 70 | 70 | 70 | 50 | 50 | Activity [21]: 50%; Activity [22]: 50%; Activity [23]: 50%; Activity [24]: 50%; Activity [25]: 50%; Activity [26]: 50%; Activity [27]: 50%; Activity [28]: 50%
